Results on 2 molecules are retold here after paper PMC5851003 (ACS nano, 2018).

Assay [1] concerns the target CXCR-4 receptor (Homo sapiens, UniProt P61073). It counts as binding. The conditions noted are these: A549 cells.
For assay [2], the target named is human α4β2 nicotinic acetylcholine receptor (nAChR) (Homo sapiens, UniProt P17787+P43681). It counts as binding. The conditions noted are these: SH-EP1-α4β2 cells.
human α4β2 nicotinic acetylcholine receptor (nAChR), sequence (P43681 29-627 limits assumed): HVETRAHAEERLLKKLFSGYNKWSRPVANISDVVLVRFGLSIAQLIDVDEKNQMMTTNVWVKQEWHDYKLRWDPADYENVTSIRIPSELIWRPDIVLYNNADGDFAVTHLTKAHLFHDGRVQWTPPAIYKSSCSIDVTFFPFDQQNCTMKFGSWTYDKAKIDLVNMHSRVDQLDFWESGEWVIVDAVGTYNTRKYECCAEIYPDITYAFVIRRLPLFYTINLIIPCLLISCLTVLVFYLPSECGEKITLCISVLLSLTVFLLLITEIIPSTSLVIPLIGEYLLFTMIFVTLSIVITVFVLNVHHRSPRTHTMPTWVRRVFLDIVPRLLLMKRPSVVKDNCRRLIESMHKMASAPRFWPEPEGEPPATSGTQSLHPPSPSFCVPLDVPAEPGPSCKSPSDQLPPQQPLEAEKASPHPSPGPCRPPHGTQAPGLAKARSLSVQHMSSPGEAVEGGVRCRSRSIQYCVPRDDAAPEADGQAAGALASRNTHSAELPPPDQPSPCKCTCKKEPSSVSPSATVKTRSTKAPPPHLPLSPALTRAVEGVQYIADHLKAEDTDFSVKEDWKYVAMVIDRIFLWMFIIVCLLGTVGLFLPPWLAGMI
human α4β2 nicotinic acetylcholine receptor (nAChR), sequence (P17787 26-502): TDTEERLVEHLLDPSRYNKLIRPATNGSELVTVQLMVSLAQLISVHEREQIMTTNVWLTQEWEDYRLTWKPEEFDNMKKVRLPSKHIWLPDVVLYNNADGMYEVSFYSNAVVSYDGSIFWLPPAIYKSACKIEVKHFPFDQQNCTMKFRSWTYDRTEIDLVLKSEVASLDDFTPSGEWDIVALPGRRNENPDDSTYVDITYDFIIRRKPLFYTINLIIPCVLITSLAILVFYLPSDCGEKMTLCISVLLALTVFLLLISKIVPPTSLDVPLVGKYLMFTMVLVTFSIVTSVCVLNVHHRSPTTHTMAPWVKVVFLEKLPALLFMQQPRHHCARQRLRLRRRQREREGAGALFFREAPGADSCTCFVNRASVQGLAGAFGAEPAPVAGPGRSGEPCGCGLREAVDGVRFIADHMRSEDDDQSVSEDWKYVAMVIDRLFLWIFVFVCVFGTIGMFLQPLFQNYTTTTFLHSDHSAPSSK

CXCR-4 receptor, sequence (P61073 whole entry): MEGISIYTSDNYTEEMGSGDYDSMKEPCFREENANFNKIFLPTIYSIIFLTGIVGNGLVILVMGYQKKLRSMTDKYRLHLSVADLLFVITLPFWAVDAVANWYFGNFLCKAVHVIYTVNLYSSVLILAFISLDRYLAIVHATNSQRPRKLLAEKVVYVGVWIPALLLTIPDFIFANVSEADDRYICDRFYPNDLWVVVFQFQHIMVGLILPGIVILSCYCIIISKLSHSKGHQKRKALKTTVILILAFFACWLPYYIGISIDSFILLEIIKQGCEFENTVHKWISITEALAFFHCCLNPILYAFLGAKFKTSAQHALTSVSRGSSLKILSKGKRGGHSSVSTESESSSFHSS

As to `c1cc(CN2CCCNCCNCCCNCC2)ccc1CN1CCCNCCNCCCNCC1` [AMD3100], the “binding induced membrane deformation, maximum value” in assay [1] was 46 nm.
As to `CC(=O)OCC[N+](C)(C)C` [acetylcholine], in assay [2], the maximum membrane deformation entry is “around 70 nm”.
